Structures can show the parent of a compound that is named as a salt.
Assays:
Assay type in all cases: biochemical, human
[1] = DCI (directly chelatable iron) assay with fluorescein-DFO; conditions: for effect of added serum component on DCI values: added to thalassemia sera
Text: DCI determination. The DCI assay (directly chelatable iron) was used for sample analysis of labile iron by assessing its binding to fluorescein-DFO (Table 1) with a fluorescence plate reader or adapted for flow cytometry using as analytical probe fluorescein and DFO covalently coupled to chemically modified polystyrene beads (Spherotec Inc., Lake Forest, Ill., USA) (and an Eclipse instrument (iCyt, Champaign, Ill., USA) (Breuer et al, to be published elsewhere). In tests of the effect of NTA on DCI determination, NTA was added from a stock solution directly to the assay reagents. In experiments testing the effects of various additives on DCI, 20 μl of the additives dissolved in HBS were mixed with 20 μl of serum samples and the combined mixture (40 μl) was used in the assay. Control samples and iron standards were similarly diluted with HBS. In previous publications the term DCI has always indicated the assay format without NTA. In the present work the two formats of the
DCI assay are designated DCI (−) (without NTA) and DCI (+) (with 0.1 mM NTA).
For comparing eLPI with NTBI, the present inventors have employed an alternative assay for NTBI, termed directly-chelatable iron or DCI (FIG. 2, lower panel). Unlike LPI and eLPI which measure iron redox activity, DCI measures the accessibility of NTBI to a fluorescent, high-affinity chelator probe (fluorescein-DFO). […] This was confirmed by testing 22 TM sera for DCI without and with 0.1 mM NTA. An average increase of 0.14±0.13 μM was obtained in the presence of NTA (Breuer, W. and Cabantchik, Z. I, unpublished observations). The concentration of NTA in the DCI assay had to be limited to 0.1 mM to avoid contributions from holo-Tf-iron. Release of iron from holo-Tf by various carboxylate ligands such as NTA in combination with DFO has been documented previously. […] The present inventors tentatively attribute the exogenous albumin-mediated reduction of DCI to the binding of the fluorescein moiety of fluorescein-DFO to one of purified-albumin's hydrophobic binding sites, leading to a partial loss of sensitivity to quenching of the fluorescent chelator by iron. As the majority of such sites is normally occupied in plasma, their interference with the above assay should be minor

[2] = LPI (labile plasma iron) assay without NTA; conditions: for effect of added serum component on measured LPI values: added to sera from 6 thalassemic patients, citrate 0.15 mM, albumin 10 mg/ml, uric acid 0.5 mM; for serum concentration of chelator required for reducing LPI by 2 μM: 2 hr incubation with thalassemia serum at room temperature, LPI assay without NTA
Description: Determination of LPI and DCI. The properties of the assays used in this study in their different modalities are compiled in Table 2, below.
(§1) LPI determination, The LPI (Labile iron in plasma) assay was used as described previously or in the presence of NTA added from a concentrated solution. In experiments testing the effects of various additives on LPI, 20 μl of the additives dissolved in HBS (HEPES buffered saline composed of 20 mM HEPES, 150 mM NaCl, pH 7.4) were mixed with 20 μl of serum. Control samples and iron standards were similarly diluted with HBS. LPI assays without added NTA (‘redox-active LPI’) are designated “LPI” and LPI assays with added NTA (0.5 mM unless stated otherwise) are designated “eLPI”.
Measurements of LPI were originally designed for the detection of labile forms of iron in native human plasma or serum. The purpose was to assess if those labile forms could serve as indicators of impending tissue iron overload and as direct targets of chelation, on the basis that they should be comprised of chemical forms that are distinguishable from the non-labile Tf-bound iron in that they are redox-active, exchangeable with other ligands and accessible to chelators. This led to simple and sensitive assays that are performed under nearly physiological conditions, with 40 μM ascorbate added to initiate redox cycling of the iron and ensuing generation of reactive oxygen species (ROS) that are quantified by a fluorescence assay (Table 1). […] Thus, the assay avoids the inadvertent detection of transferrin-bound iron or labile iron-chelates. The detected LPI reflects the most labile or redox-active forms of NTBI in native plasma or serum, but not putative forms bound to non-labile ligands (e.g. citrate, albumin) In addition, the detection of LPI might be susceptible to masking by plasma antioxidants. […] For comparison, they also used a more direct assay for NTBI, in which DFO-chelatable iron is determined by its stoichiometric binding to the probe fluorescein-DFO in the presence and absence of an iron mobilizing agent.

[3] = eLPI assay (LPI assay with added NTA); conditions: for serum concentration of chelator required for reducing eLPI by 2 μM: 2 hr incubation with thalassemia serum at room temperature, eLPI assay (0.5 mM NTA)
Description: as §1
As the iron-mobilizing effect of NTA on NTBI has been previously shown to be dependent on the NTA concentration, the effect of increasing NTA concentrations on LPI levels in 9 representative sera: 7 from thalassemia patients and 2 from normal individuals (FIG. 1) was assessed. […] The detected LPI signal reached maximum levels at 0.1 mM NTA in sera with LPI <1 μM and at 0.5 mM NTA in thalassemic sera with LPI >1 μM. Control sera […] remained LPI-negative at all tested concentrations of NTA, a finding corroborated in LPI tests carried out with 0.5 mM NTA on >100 sera from normal individuals (data not shown). The same values of LPI were obtained when sera were assayed with 0.5 mM NTA present in the final assay solution or when sera were preincubated with NTA for 1 hr prior to 10-fold dilution with assay solution lacking NTA. Based on the relatively fast (within minutes) and distinct extraction/mobilization of LPI components by moderate NTA treatment depicted in FIG. 1, a modality of the original LPI assay by incorporating 0.5mM NTA as extracting/mobilizing agent was adopted and referred to as enhanced LPI (eLPI).

Compound | effect of added serum component on DCI values [1] | effect of added serum component on measured LPI values [2] | serum concentration of chelator required for reducing eLPI by 2 μM [3] | serum concentration of chelator required for reducing LPI by 2 μM [2] | further results
O=c1[nH]c(=O)c2[nH]c(=O)[nH]c2[nH]1 [uric acid] | Neither citrate nor uric acid significantly affected DCI values | significantly attenuated | – | – | –
CC(=O)N(O)CCCCCNC(=O)CCC(=O)N(O)CCCCCNC(=O)CCC(=O)N(O)CCCCCN [DFO, deferrioxamine] | – | – | ~10 µM | < 10 µM | competition with fluorescein-DFO in preventing the detection of DCI ([1]; DCI assays without and with NTA): competed efficiently
O=C(O)CC(O)(CC(=O)O)C(=O)O [citrate, sodium citrate] | Neither citrate nor uric acid significantly affected DCI values | significantly attenuated | – | – | –
iron-saturated Tf: human apo-Tf saturated with iron (ferrous ammonium sulfate), dialyzed | – | – | – | – | effect of added serum component on eLPI values ([3]; 1 mg/ml added to 6 thalassemia sera in the presence of NTA): no significant effect
Cc1c(O)c(=O)ccn1C [DFP, 1,2-dimethyl-3-hydroxypyridin-4-one] | – | – | ~75 µM | ~25 µM | concentration in the serum required to decrease DCI by 2 μM, compared with LPI and eLPI ([1]; DCI assays without and with NTA, 2 hr incubation with thalassemia serum): markedly greater

Reference: US9291619B2, “Method for detecting non-transferrin bound iron” (Yissum Research Development Company of the Hebrew …, priority 2011, dated 2016)
